Target: T1, human type 1 glycine transporter (GlyT1) (Homo sapiens, UniProt P48067)
T1 construct: T98G cells (glioma cells) expressing human type 1 glycine transporter (GlyT1) were used; endogenous in cells; host or cells: T98G cells (human glioma)
T1 sequence (P48067 1-706): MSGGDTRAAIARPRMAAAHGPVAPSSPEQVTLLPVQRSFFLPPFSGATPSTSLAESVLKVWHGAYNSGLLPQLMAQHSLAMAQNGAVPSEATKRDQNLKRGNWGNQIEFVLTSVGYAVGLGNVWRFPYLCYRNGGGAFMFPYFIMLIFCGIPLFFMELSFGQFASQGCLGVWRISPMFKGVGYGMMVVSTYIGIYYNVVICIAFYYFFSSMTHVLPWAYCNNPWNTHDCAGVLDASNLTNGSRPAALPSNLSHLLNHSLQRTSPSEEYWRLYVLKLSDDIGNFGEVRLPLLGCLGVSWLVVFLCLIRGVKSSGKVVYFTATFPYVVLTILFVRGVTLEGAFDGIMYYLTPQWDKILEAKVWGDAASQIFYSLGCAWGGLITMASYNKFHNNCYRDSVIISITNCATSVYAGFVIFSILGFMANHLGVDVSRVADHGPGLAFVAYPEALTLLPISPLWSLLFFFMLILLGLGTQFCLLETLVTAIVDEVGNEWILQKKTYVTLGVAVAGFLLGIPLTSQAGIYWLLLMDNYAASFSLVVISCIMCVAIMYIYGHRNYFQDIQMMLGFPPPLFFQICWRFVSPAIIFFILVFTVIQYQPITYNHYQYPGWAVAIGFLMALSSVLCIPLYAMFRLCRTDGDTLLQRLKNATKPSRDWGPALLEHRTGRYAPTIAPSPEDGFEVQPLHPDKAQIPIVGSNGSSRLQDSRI
Test: Glycine uptake inhibition experiment ([3H] glycine uptake)
Format: cell-based
Settings: T98G cells (glioma cells) expressing human GlyT1; [3H] glycine 250 nM; 10-min pretreatment, 15 minutes at room temperature; read-out: glycine uptake inhibitory activity (IC50 value)
Method: A glycine uptake experiment was conducted in accordance with the method published in Neuron, 8, 927-935, 1992. In the experiment, T98G cells (glioma cells) expressing human type 1 glycine transporter (GlyT1) were used. The T98G cells were seeded in a 96-well plate at 2.0×10^4 cells/well and cultured overnight in a CO2 incubator. The test substance was dissolved in a 100% DMSO solution and then dissolved in a 10 mM HEPES buffer solution (pH 7.4) containing 150 mM sodium chloride, 1 mM calcium chloride, 5 mM potassium chloride, 1 mM magnesium chloride, 10 mM glucose and 0.2% bovine serum albumin. After removing the cell culture medium, the test substance was subjected to a 10-min pretreatment. Subsequently, the test substance and [^3H] glycine (final concentration: 250 nM) were added to the cells and reaction was performed at room temperature for 15 minutes. After the end of the reaction, the extracellular fluid was aspirated with a manifold to remove excess labeled glycine present outside the cells, and then the cells were lysed with a 0.5 M aqueous sodium hydroxide solution. The glycine content in the cells was determined by measuring the radioactivity in the cell lysate with a liquid scintillation counter. Glycine uptake in the presence of 10 μM ALX^5407 was defined as non-specific uptake, and the value calculated by subtracting the amount of the non-specific uptake from the total uptake in the absence of 10 μM ALX5407 was defined as specific uptake. In addition, glycine uptake inhibitory activity (IC50 value) was calculated from an inhibition curve at the concentrations of each test substance ranging from 10^−9 to 10^−5 M.
It should be noted that ALX^5407 is an HCl salt of N-[(3R)-3-([1,1′-biphenyl]-4-yloxy)-3-(4-fluorophenyl)propyl]-N-methylglycine.

IC50	SMILES
660 nM	O=C(CN1C(=O)N(c2ccc(C(F)(F)F)nc2)C[C@@H]1CC1CCCCC1)Nc1cccc(C(F)(F)F)c1 [Compound 8]
89 nM	CC(C)[C@H]1CN(c2ccc(F)cn2)C(=O)N1CC(=O)Nc1cccc(C(F)(F)F)c1 [Compound 11]
71 nM	O=C(CN1C(=O)N(c2ccc(C(F)(F)F)nc2)C[C@@H]1c1ccccc1)Nc1cccc(C(F)(F)F)c1 [Compound 12]
74 nM	CC(C)(C)[C@H]1CN(c2ccc(C(F)(F)F)nc2)C(=O)N1CC(=O)Nc1cccc(C(F)(F)F)c1 [Compound 13]
800 nM	CC(C)[C@H]1CN(c2ccc(C(F)(F)F)nc2)C(=O)N1CC(=O)Nc1nnc(C(F)(F)F)s1 [Compound 54]
53 nM	CC(C)[C@H]1CN(c2ccc(C(F)(F)F)nc2)C(=O)N1CC(=O)Nc1cncc(Cl)c1 [Compound 61]
33 nM	CC(C)[C@H]1CN(c2ncc(Cl)cn2)C(=O)N1CC(=O)Nc1cc(C(F)(F)F)ccn1 [Compound 62]
54 nM	COc1cnc(N2C[C@H](C(C)C)N(CC(=O)Nc3cc(C(F)(F)F)ccn3)C2=O)nc1 [Compound 93]
230 nM	CC(C)[C@H]1CN(c2ccc(C(F)(F)F)nc2)C(=O)N1CC(=O)Nc1cc(C(C)(C)C)no1 [Compound 103]
240 nM	CCc1cnc(N2C[C@H](C(C)C)N(CC(=O)Nc3ccc(C(F)(F)F)nc3)C2=O)nc1 [Compound 104]
75 nM	COC(C)(C)[C@H]1CN(c2ccc(C(F)(F)F)nc2)C(=O)N1CC(=O)Nc1cc(C(F)(F)F)ccn1 [Compound 148]
43 nM	O=C(CN1C(=O)N(c2ncc(C(F)(F)F)cc2F)C[C@@H]1CC1CC1)Nc1cc(Cl)ccn1 [Compound 152]
150 nM	CCc1ccnc(NC(=O)CN2C(=O)N(c3cnc(C(F)(F)F)nc3)C[C@@H]2C(C)C)c1 [Compound 165]
45 nM	CCOc1ccc(N2C[C@H](C(C)C)N(CC(=O)Nc3cc(Cl)ccn3)C2=O)nc1 [Compound 186]
600 nM	CC(C)[C@H]1CN(c2ncc(F)cn2)C(=O)N1CC(=O)Nc1cc(Cl)ccn1 [Compound 188]
22 nM	CC(C)[C@H]1CN(c2ncc(C3CC3)cn2)C(=O)N1CC(=O)Nc1cc(C(F)(F)F)ccn1 [Compound 193]
17 nM	CCOc1cnc(N2C[C@H]([C@@H](F)CC)N(CC(=O)Nc3cc(C(F)(F)F)ccn3)C2=O)nc1 [Compound 220]
16 nM	CCOc1cnc(N2C[C@H]([C@@H](C)CC)N(CC(=O)Nc3cc(Cl)ccn3)C2=O)nc1 [Compound 248]
18 nM	CC[C@H](C)[C@H]1CN(c2ncc(C3CC3)cn2)C(=O)N1CC(=O)Nc1cc(Cl)ccn1 [Compound 249]
24 nM	CCOc1cnc(N2C[C@H]([C@@H](C)CC)N(CC(=O)Nc3cc(C4CC4)ccn3)C2=O)nc1 [Compound 250]
